IC50, Activity and MIC data for 55 compounds are collected here from ChEMBL document CHEMBL6103589, “Synthesis and evaluation of novel ebselen derivatives as urease inhibitors for combating Helicobacter pylori infections” (Eur J Med Chem, 2025).

Converted amounts (≈) assume the structure as drawn. The source made the active and inactive calls. The rule behind the calls is not given here.

Assay [1] has as its target Urease subunit alpha/Urease subunit beta (Helicobacter pylori (strain ATCC 700392 / 26695) (Campylobacterpylori), UniProt P69996). Kind of assay: Inhibition of Helicobacter pylori ATCC 43504 urease preincubated for 75 mins followed by urea addition and measured after 30 mins by ELISA. In kind it is protein-complex assay. In general terms: An ELISA detects its analyte on a solid surface through an enzyme-linked reagent.

Assay [2] concerns Helicobacter pylori. Kind of assay: Antibacterial activity against Helicobacter pylori ATCC 43504 incubated for 24 hrs by broth dilution method. The following applies: dose 1-64 […]. Type of assay: functional. (In broth dilution the organism is exposed to a series of concentrations in liquid medium.)
Assay [3] has as its system Helicobacter pylori. In words: Antibacterial activity against Helicobacter pylori ATCC 43504 assessed as inhibition of bacterial colonies at 32 ug/mL incubated for 24 hrs by broth dilution method. In kind it is functional, organism-based. The following applies: dose 32.0 µg/ml.

Sequence of Urease subunit alpha/Urease subunit beta (P69996 whole entry): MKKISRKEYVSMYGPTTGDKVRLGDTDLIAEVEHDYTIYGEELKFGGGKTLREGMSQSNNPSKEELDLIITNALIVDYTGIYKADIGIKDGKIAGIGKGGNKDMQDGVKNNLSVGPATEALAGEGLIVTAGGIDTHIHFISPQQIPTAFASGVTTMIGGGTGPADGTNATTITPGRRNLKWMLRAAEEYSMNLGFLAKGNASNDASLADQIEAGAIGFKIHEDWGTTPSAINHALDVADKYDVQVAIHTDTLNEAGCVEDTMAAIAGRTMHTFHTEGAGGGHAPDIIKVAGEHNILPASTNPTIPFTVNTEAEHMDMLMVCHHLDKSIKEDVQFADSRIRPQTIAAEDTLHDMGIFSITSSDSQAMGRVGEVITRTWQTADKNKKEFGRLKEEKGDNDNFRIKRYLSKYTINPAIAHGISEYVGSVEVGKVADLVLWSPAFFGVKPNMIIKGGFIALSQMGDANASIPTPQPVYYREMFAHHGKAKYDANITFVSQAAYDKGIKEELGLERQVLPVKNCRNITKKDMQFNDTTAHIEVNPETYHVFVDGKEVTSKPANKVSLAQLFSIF
Sequence of Urease subunit alpha/Urease subunit beta (P14916 whole entry, further chain): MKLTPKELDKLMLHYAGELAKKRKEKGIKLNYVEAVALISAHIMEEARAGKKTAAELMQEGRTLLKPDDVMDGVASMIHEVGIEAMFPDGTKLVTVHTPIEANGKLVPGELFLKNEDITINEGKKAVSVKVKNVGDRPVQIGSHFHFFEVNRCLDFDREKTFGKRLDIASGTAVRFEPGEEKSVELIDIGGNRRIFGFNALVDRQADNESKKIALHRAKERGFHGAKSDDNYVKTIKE

In the case of `N#Cc1cccc(-n2[se]c3ccccc3c2=O)c1`, in assay [1], the half-maximal inhibitory concentration (IC50) (as a rule, the point on the concentration scale where inhibition reaches its midpoint) turned out to be 1320 nM.

In assay [1], `O=c1c2ccccc2[se]n1-c1cc(F)ccc1Cl` showed an IC50 of 1340 nM. This IC50 and that of the compound before are within 1.5-fold of each other.

`O=C(c1cccc(Br)c1)n1[se]c2ccccc2c1=O` registered an IC50 in assay [1] of 820 nM.

In turn, `COC(=O)c1cccc(-n2[se]c3ccccc3c2=O)c1` registered an IC50 in assay [1] of 4660 nM.

For `O=c1c2ccccc2[se]n1-c1c(F)cccc1Cl`, the 50% inhibitory concentration (IC50) in assay [1] is 1530 nM.

`O=C(c1cc(F)ccc1F)n1[se]c2ccccc2c1=O` displayed an IC50 in assay [1] of 2980 nM. Compared with the last compound, the IC50 is about 1.9-fold higher.

As for `CC(C)(C)c1ccc(-n2[se]c3ccccc3c2=O)cc1`, 15100 nM corresponded to half-maximal inhibition in assay [1] (IC50).

In assay [1], `O=C(c1ccc(Br)cc1)n1[se]c2ccccc2c1=O` came in with an IC50 of 940 nM.

`O=C(c1cccc(F)c1F)n1[se]c2ccccc2c1=O`: the 50% inhibitory concentration (IC50) in assay [1] came to 1910 nM. Against the preceding compound, the IC50 is about 2-fold higher.

Consider `O=c1c2ccccc2[se]n1-c1cccc(OC(F)(F)F)c1`, for which, in assay [1], 7230 nM corresponded to half-maximal inhibition (IC50).

In turn, `Cc1ccc(C(=O)n2[se]c3ccccc3c2=O)cc1` registered a concentration for half-maximal inhibition (IC50) in assay [1] of 3750 nM.

Compound `O=C(c1cccc([N+](=O)[O-])c1)n1[se]c2ccccc2c1=O` displayed an IC50 in assay [1] of 1230 nM.

Turning to `Cc1ccc(-n2[se]c3ccccc3c2=O)cc1C(F)(F)F`, the IC50 in assay [1] was found to be 12100 nM.

Compound `O=C(c1ccccc1Cl)n1[se]c2ccccc2c1=O` gave an IC50 in assay [1] of 1460 nM.

Consider `O=C(c1cccc(Cl)c1)n1[se]c2ccccc2c1=O`, for which, in assay [1], the 50% inhibitory concentration (IC50) was found to be 1310 nM. This IC50 and that of the compound before are within 1.5-fold of each other.

On to `O=c1c2ccccc2[se]n1-c1ccccc1Cl`, for which inhibition in assay [1] was half-maximal at 1830 nM (IC50). This IC50 and that of the compound before are within 1.5-fold of each other.

Turning to `O=C(c1ccc(C(F)(F)F)cc1)n1[se]c2ccccc2c1=O`, the half-maximal inhibitory concentration (IC50) in assay [1] was 3540 nM.

`O=C(c1c(F)cccc1F)n1[se]c2ccccc2c1=O` gave an IC50 in assay [1] of 3620 nM.

On to `COc1cccc(-n2[se]c3ccccc3c2=O)c1`, for which the half-maximal inhibitory concentration (IC50) in assay [1] was 6660 nM.

Turning to `O=c1c2ccccc2[se]n1-c1ccc(F)c(F)c1`, 3550 nM corresponded to half-maximal inhibition in assay [1] (IC50).

As for `O=C(Oc1n[se]c2ccccc12)c1cccc(F)c1F`, the IC50 in assay [1] amounted to 440 nM.

Take `O=C(c1ccc(F)cc1F)n1[se]c2ccccc2c1=O`: the 50% inhibitory concentration (IC50) in assay [1] was determined as 1990 nM.

`O=C(c1ccccc1F)n1[se]c2ccccc2c1=O` showed a concentration for half-maximal inhibition (IC50) in assay [1] of 870 nM.

Turning to `Cc1cccc(C(=O)n2[se]c3ccccc3c2=O)c1`, in assay [1], inhibition was half-maximal at 5410 nM (IC50).

With `O=C(c1ccc(Cl)cc1)n1[se]c2ccccc2c1=O`, in assay [1], half-maximal inhibition (IC50) required 1930 nM.

In turn, `COc1ccc(-n2[se]c3ccccc3c2=O)cc1` gave a half-maximal inhibitory concentration (IC50) in assay [1] of 7580 nM.

As for `O=C(c1ccc(F)c(F)c1)n1[se]c2ccccc2c1=O`, half-maximal inhibition in assay [1] (IC50) was put at 3360 nM.

Turning to `O=C(c1cc(F)c(F)cc1F)n1[se]c2ccccc2c1=O`, in assay [1], the 50% inhibitory concentration (IC50) came out at 3290 nM.

Regarding `Cc1ccccc1C(=O)n1[se]c2ccccc2c1=O`, the midpoint of inhibition in assay [1], the IC50, lay at 3170 nM.

In turn, `COc1ccccc1C(=O)n1[se]c2ccccc2c1=O` returned a half-maximal inhibitory concentration (IC50) in assay [1] of 1100 nM. Compared with the last compound, the IC50 is about 2.9-fold lower.

In assay [1], `O=c1c2ccccc2[se]n1-c1ccc(C(F)(F)F)cc1F` came in with an IC50 of 5210 nM.

For `COc1ccc(C(=O)n2[se]c3ccccc3c2=O)cc1`, the 50% inhibitory concentration (IC50) in assay [1] was determined as 1730 nM.

In the case of `COC(=O)c1ccc(-n2[se]c3ccccc3c2=O)cc1`, the half-maximal inhibitory concentration (IC50) in assay [1] was determined as 5230 nM.

On to `O=C(c1ccc(F)c(F)c1F)n1[se]c2ccccc2c1=O`, for which the IC50 in assay [1] was 3480 nM.

As for `O=C(c1ccc(F)cc1)n1[se]c2ccccc2c1=O`, the IC50 in assay [1] was 890 nM.

In assay [1], `O=c1c2ccccc2[se]n1-c1ccc(Cl)cc1` returned an IC50 of 2520 nM. Compared with the last compound, the IC50 is about 2.8-fold higher.

`O=C(c1ccc([N+](=O)[O-])cc1)n1[se]c2ccccc2c1=O` registered an IC50 in assay [1] of 1960 nM. This IC50 and that of the compound before are within 1.5-fold of each other.

In turn, `O=C(Oc1n[se]c2ccccc12)c1ccc(F)cc1` displayed a half-maximal inhibitory concentration (IC50) in assay [1] of 340 nM. This IC50 is about 5.8-fold lower than that of the compound before.

On to `O=C(Oc1n[se]c2ccccc12)c1ccc(F)c(F)c1F`, for which 1100 nM corresponded to half-maximal inhibition in assay [1] (IC50).

In the case of `O=c1c2ccccc2[se]n1-c1ccccc1` [EBSELEN], in the assay on Helicobacter pylori [2], the Activity entry was “Dose-dependent-effect” and the MIC – broadly, the lowest concentration found to suppress growth – was found to be 32 µg/mL (≈ 117 µM). Further, the result with Helicobacter pylori [3] was Active. Further, in assay [1], the midpoint of inhibition, the IC50, lay at 1510 nM.

In turn, `O=C(c1cccc(C(F)(F)F)c1)n1[se]c2ccccc2c1=O` showed an IC50 in assay [1] of 1460 nM.

The compound `O=C(c1ccccc1Br)n1[se]c2ccccc2c1=O` gave a half-inhibitory concentration (IC50) in assay [1] of 1500 nM.

Take `COc1cccc(C(=O)n2[se]c3ccccc3c2=O)c1`: in assay [1], it took 1980 nM to reach half-maximal inhibition (IC50).

Compound `O=C(Oc1n[se]c2ccccc12)c1ccccc1F` registered a half-inhibitory concentration (IC50) in assay [1] of 310 nM.

In turn, `O=c1c2ccccc2[se]n1-c1ccc(OC(F)(F)F)cc1` returned a half-maximal inhibitory concentration (IC50) in assay [1] of 10600 nM.

As to `O=C(c1ccccc1[N+](=O)[O-])n1[se]c2ccccc2c1=O`, the IC50 in assay [1] came out at 2650 nM.

Regarding `O=c1c2ccccc2[se]n1-c1ccc(F)cc1`, the IC50 in assay [1] amounted to 2420 nM.

Compound `O=C(c1cccc(F)c1)n1[se]c2ccccc2c1=O` returned a half-inhibitory concentration (IC50) in assay [1] of 440 nM. Against the preceding compound, the IC50 is about 5.5-fold lower.

For `O=C(Oc1n[se]c2ccccc12)c1ccc(F)cc1F`, half-maximal inhibition in assay [1] (IC50) required 360 nM.

Take `O=C(Oc1n[se]c2ccccc12)c1c(F)cccc1F`: in assay [1], the IC50 was found to be 1120 nM.

For the compound `O=c1c2ccccc2[se]n1-c1ccc(F)cc1Cl`, in assay [1], the half-inhibitory concentration (IC50) is 1560 nM.

As for `O=c1c2ccccc2[se]n1-c1cccc(Cl)c1`, in assay [1], inhibition was half-maximal at 2760 nM (IC50).

`O=C(c1ccccc1C(F)(F)F)n1[se]c2ccccc2c1=O` returned a concentration for half-maximal inhibition (IC50) in assay [1] of 3990 nM.

Regarding `O=C(Oc1n[se]c2ccccc12)c1cc(F)ccc1F`, the half-maximal inhibitory concentration (IC50) in assay [1] amounted to 860 nM. Compared with the last compound, the IC50 is about 4.6-fold lower.

In assay [1], `Cc1cccc(-n2[se]c3ccccc3c2=O)c1` displayed an IC50 of 3190 nM.
